19 molecules from Sander's compilation of Henry's law constants (doi:10.1016/j.atmosenv.2016.10.009) can be followed below.

The nature of the data set: Henry solubility constant Hcp at 298.15 K (mol/(m3 Pa)). Conditions: reference: Odabasi and Adali (2016).

As to `Clc1cc(Cl)c2c(Cl)cc(Cl)c(Cl)c2c1` [1,2,4,5,7-pentachloronaphthalene], the “Henry solubility constant Hcp” value was 0.089.

With `Clc1ccc2c(Cl)c(Cl)ccc2c1` [1,2,6-trichloronaphthalene], the “Henry solubility constant Hcp” value is 0.17. As to `Clc1cc2c(Cl)c(Cl)c(Cl)c(Cl)c2c(Cl)c1Cl` [1,2,3,4,5,6,7-heptachloronaphthalene], the “Henry solubility constant Hcp” value was 3.6. In the case of `Clc1ccc(Cl)c2c(Cl)cccc12` [1,4,5-trichloronaphthalene] it was 0.22; in that of `Clc1cc(Cl)c2c(Cl)ccc(Cl)c2c1Cl` [1,2,4,5,8-pentachloronaphthalene], 0.26. Regarding `Clc1ccc(Cl)c2c(Cl)ccc(Cl)c12` [1,4,5,8-tetrachloronaphthalene], the “Henry solubility constant Hcp” value turned out to be 0.35. Regarding `Clc1ccc2c(Cl)cc(Cl)c(Cl)c2c1Cl` [1,2,4,7,8-pentachloronaphthalene], the “Henry solubility constant Hcp” value worked out at 0.17. As to `Clc1ccc2c(Cl)c(Cl)c(Cl)c(Cl)c2c1Cl` [1,2,3,4,5,6-hexachloronaphthalene], the “Henry solubility constant Hcp” value was determined as 0.78. `Clc1cc(Cl)c2cccc(Cl)c2c1` [1,3,5-trichloronaphthalene]: the “Henry solubility constant Hcp” value came out at 0.071.

On to `Clc1cc(Cl)c2c(Cl)c(Cl)c(Cl)c(Cl)c2c1Cl` [1,2,3,4,5,6,8-heptachloronaphthalene], for which the “Henry solubility constant Hcp” value came out at 2.4.

Take `Clc1cc(Cl)c2c(Cl)c(Cl)ccc2c1Cl` [1,2,4,5,6-pentachloronaphthalene]: the “Henry solubility constant Hcp” value was 0.14. Consider `Clc1ccc2c(Cl)c(Cl)c(Cl)c(Cl)c2c1` [1,2,3,4,6-pentachloronaphthalene], for which the “Henry solubility constant Hcp” value is 0.078. On to `Clc1cc(Cl)c2c(Cl)cccc2c1Cl` [1,2,4,5-tetrachloronaphthalene], for which the “Henry solubility constant Hcp” value is 0.15. On to `Clc1c(Cl)c(Cl)c2c(Cl)ccc(Cl)c2c1Cl` [1,2,3,4,5,8-hexachloronaphthalene], for which the “Henry solubility constant Hcp” value came out at 0.93. Regarding `Clc1cc2c(Cl)ccc(Cl)c2c(Cl)c1Cl` [1,2,3,5,8-pentachloronaphthalene], the “Henry solubility constant Hcp” value came to 0.17. For `Clc1cc(Cl)c2c(Cl)c(Cl)cc(Cl)c2c1` [1,2,4,6,8-pentachloronaphthalene], the “Henry solubility constant Hcp” value worked out at 0.1.

In the case of `Clc1c(Cl)c(Cl)c2c(Cl)c(Cl)c(Cl)c(Cl)c2c1Cl` [octachloronaphthalene], the “Henry solubility constant Hcp” value was 1.2.

`Clc1ccc2c(Cl)cccc2c1Cl` [1,2,5-trichloronaphthalene]: the “Henry solubility constant Hcp” value is 0.11. As for `Clc1cc2c(Cl)cc(Cl)c(Cl)c2c(Cl)c1Cl` [1,2,3,5,7,8-hexachloronaphthalene], the “Henry solubility constant Hcp” value was found to be 0.43.
